Data published in US20160002247A1, “8-SUBSTITUTED IMIDAZOPYRIMIDINONE DERIVATIVE HAVING AUTOTAXIN INHIBITORY ACTIVITY” (THE UNIVERSITY OF TOKYO, priority 2013, published 2016).

Biological target: T1, Human autotaxin enzyme (Homo sapiens, UniProt Q13822)
T1 construct: purchased R&D System
Test: Evaluation of autotaxin inhibitor, Method C (Test Example 3): 18:0 Lyso PC, choline assay, Resorufin fluorescence
Format: biochemical
Details: Assay Method C (Test Example 3), human autotaxin, 18:0 Lyso PC substrate; read-out: Inhibitory Activity (autotaxin enzyme inhibitory activity, IC50 class)
Outline: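 Choline-coupled fluorescence readout (20 min, resorufin at 531/598 nm) followed a 2 h room-temperature reaction of human autotaxin with 18:0 Lyso PC substrate (added as 200 μM solution) in pH 7.5 Tris buffer containing MgCl2 and Triton X-100. Percent inhibition scaled to no-compound (0%) and no-enzyme (100%) wells and plotted versus concentration.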

SMILES | IC50
CCCCCn1c(NC2(C(=O)NCC(=O)O)CC2)cc(=O)n2cc(-c3ccc(Cl)cc3)nc12 [Compound 637] | > 1000 nM
CCCCCn1c(N2CCCC[C@@H]2C(=O)NCC(=O)O)cc(=O)n2cc(-c3ccc(Cl)cc3)nc12 [Compound 638] | 100 to 1000 nM
CCCCCn1c(N2CCN(C(=O)OC(C)(C)C)C(C(=O)O)C2)cc(=O)n2cc(-c3ccc(Cl)cc3)nc12 (stereo not drawn) [Compound 639] | 100 to 1000 nM
CCCCCn1c(N2CCN(C(=O)OC(C)(C)C)C[C@@H]2C(=O)O)cc(=O)n2cc(-c3ccc(Cl)cc3)nc12 [Compound 640] | > 1000 nM
CCCCCn1c(N2CCN(C(=O)OC(C)(C)C)C[C@H]2C(=O)O)cc(=O)n2cc(-c3ccc(Cl)cc3)nc12 [Compound 641] | > 1000 nM
CCCCCn1c(N2CCC[C@H]2C(=O)NCCN2CCCCC2)cc(=O)n2cc(-c3ccc(Cl)cc3)nc12 [Compound 643] | 100 to 1000 nM
CCCCCn1c(N2CCC[C@H]2C(=O)NCCN2CCOCC2)cc(=O)n2cc(-c3ccc(Cl)cc3)nc12 [Compound 644] | 100 to 1000 nM
CCCCCn1c(N2CCC[C@H]2C(=O)NCCN(C)C)cc(=O)n2cc(-c3ccc(Cl)cc3)nc12 [Compound 645] | 100 to 1000 nM
CCCCCn1c(N2CCC[C@H]2C(=O)NCCCN(C)C)cc(=O)n2cc(-c3ccc(Cl)cc3)nc12 [Compound 646] | > 1000 nM
CCCCCn1c(N2CCC[C@H]2C(=O)NCCN2CCCC2)cc(=O)n2cc(-c3ccc(Cl)cc3)nc12 [Compound 647] | > 1000 nM
CCCCCn1c(N2CCC[C@H]2C(=O)NCCCN2CCCC2)cc(=O)n2cc(-c3ccc(Cl)cc3)nc12 [Compound 648] | > 1000 nM
CCCCCn1c(N2CCC[C@H]2C(=O)NCC2CCN(C)C2)cc(=O)n2cc(-c3ccc(Cl)cc3)nc12 (stereo partly drawn) [Compound 650] | > 1000 nM
CCCCCn1c(N2CCC[C@H]2C(=O)NCCCCCN(C)C)cc(=O)n2cc(-c3ccc(Cl)cc3)nc12 [Compound 653] | 100 to 1000 nM
CCCCCn1c(N2CCC[C@H]2C(=O)NCCCN(C)C(=O)OC(C)(C)C)cc(=O)n2cc(-c3ccc(Cl)cc3)nc12 [Compound 655] | 100 to 1000 nM
CCCCCn1c(N2CCC[C@H]2C(=O)NCCCCN(C)C)cc(=O)n2cc(-c3ccc(Cl)cc3)nc12 [Compound 656] | 100 to 1000 nM
CCCCCn1c(N2CCNC[C@@H]2C(=O)O)cc(=O)n2cc(-c3ccc(Cl)cc3)nc12 [Compound 659] | > 1000 nM

SMILES | IC50
CCCCCn1c(N2CCNC[C@H]2C(=O)O)cc(=O)n2cc(-c3ccc(Cl)cc3)nc12 [Compound 660] | > 1000 nM
CCCCCn1c(N2CCC[C@H]2C(=O)NCCCNC)cc(=O)n2cc(-c3ccc(Cl)cc3)nc12 [Compound 661] | > 1000 nM
CCCCCn1c(N2CCNC[C@@H]2C(=O)NCCC(=O)O)cc(=O)n2cc(-c3ccc(Cl)cc3)nc12 [Compound 663] | 100 to 1000 nM
CCCCCn1c(N2CCC[C@H]2C(=O)NCCOCCN2C(=O)C=CC2=O)cc(=O)n2cc(-c3ccc(Cl)cc3)nc12 [Compound 668] | 100 to 1000 nM
CCCCCn1c(N2CCC[C@H](C(=O)OCC)C2)cc(=O)n2cc(-c3ccc(Cl)cc3)nc12 [Compound 671] | 100 to 1000 nM
CCCCCn1c(N2CCN(C(=O)OC(C)(C)C)CC2)cc(=O)n2cc(-c3ccc(Cl)cc3)nc12 [Compound 682] | 100 to 1000 nM
CCCCCn1c(N2CCC[C@H]2C(=O)N[C@@H](CO)C(=O)OC)cc(=O)n2cc(-c3ccc(Cl)cc3)nc12 [Compound 687] | 100 to 1000 nM
CCCCCn1c(N2CCC[C@H]2C(=O)N2CCC[C@H](C(=O)OCC)C2)cc(=O)n2cc(-c3ccc(Cl)cc3)nc12 [Compound 691] | 100 to 1000 nM
CCCCCn1c(N2CCC[C@H]2C(=O)N2CCCC(C(N)=O)C2)cc(=O)n2cc(-c3ccc(Cl)cc3)nc12 (stereo partly drawn) [Compound 695] | 100 to 1000 nM
CCCCCn1c(N2CCC[C@H]2C(=O)N2CCCC(C(=O)OCC)C2)cc(=O)n2cc(-c3ccc(Cl)cc3)nc12 (stereo partly drawn) [Compound 696] | 100 to 1000 nM
CCCCCn1c(N2CCC[C@H]2C(=O)N2CCNC(=O)C2)cc(=O)n2cc(-c3ccc(Cl)cc3)nc12 [Compound 697] | 10 to 100 nM
CCCCCn1c(N2CCC[C@H]2C(=O)N2CCNC(=O)CC2)cc(=O)n2cc(-c3ccc(Cl)cc3)nc12 [Compound 698] | 10 to 100 nM
CCCCCn1c(N2CCC[C@H]2C(=O)NCC(=O)N(C)C)cc(=O)n2cc(-c3ccc(Cl)cc3)nc12 [Compound 699] | 100 to 1000 nM
CCCCCn1c(N2CCC[C@H]2C(=O)NC2CCNC2=O)cc(=O)n2cc(-c3ccc(Cl)cc3)nc12 (stereo partly drawn) [Compound 700] | 10 to 100 nM
CCCCCn1c(N2CCC[C@H]2C(=O)N2CCC(C(N)=O)C2)cc(=O)n2cc(-c3ccc(Cl)cc3)nc12 (stereo partly drawn) [Compound 701] | 100 to 1000 nM

Other lines, results leading:

IC50 | SMILES
10 to 100 nM | CCCCCn1c(N2CCC[C@@H](C(=O)NCC(=O)O)C2)cc(=O)n2cc(-c3ccc(Cl)cc3)nc12 [Compound 636]
10 to 100 nM | CCCCCn1c(N2CCC[C@H]2C(=O)NCCCN2CCCC2=O)cc(=O)n2cc(-c3ccc(Cl)cc3)nc12 [Compound 642]
10 to 100 nM | CCCCCn1c(N2CCC[C@H]2C(=O)NCCCN2CCN(C)CC2)cc(=O)n2cc(-c3ccc(Cl)cc3)nc12 [Compound 649]
10 to 100 nM | CCCCCn1c(N2CCC[C@H]2C(=O)NCCCCCCN(C)C)cc(=O)n2cc(-c3ccc(Cl)cc3)nc12 [Compound 651]
10 to 100 nM | CCCCCn1c(N2CCC[C@H]2C(=O)NCCCCN2CCN(C)CC2)cc(=O)n2cc(-c3ccc(Cl)cc3)nc12 [Compound 652]
< 10 nM | CCCCCn1c(N2CCC[C@H]2C(=O)NCCCCCN2CCOCC2)cc(=O)n2cc(-c3ccc(Cl)cc3)nc12 [Compound 654]
< 10 nM | CCCCCn1c(N2CCC[C@H]2C(=O)NCCCCN2CC(C)OC(C)C2)cc(=O)n2cc(-c3ccc(Cl)cc3)nc12 (stereo partly drawn) [Compound 657]
10 to 100 nM | CCCCCn1c(N2CCNC(C(=O)O)C2)cc(=O)n2cc(-c3ccc(Cl)cc3)nc12 (stereo not drawn) [Compound 658]
10 to 100 nM | CCCCCn1c(N2CCNC(C(=O)NCCC(=O)O)C2)cc(=O)n2cc(-c3ccc(Cl)cc3)nc12 (stereo not drawn) [Compound 662]
10 to 100 nM | CCCCCn1c(N2CCNC[C@H]2C(=O)NCCC(=O)O)cc(=O)n2cc(-c3ccc(Cl)cc3)nc12 [Compound 664]
10 to 100 nM | CCCCCn1c(N2CCNC(C(=O)NCC(=O)O)C2)cc(=O)n2cc(-c3ccc(Cl)cc3)nc12 (stereo not drawn) [Compound 665]
10 to 100 nM | CCCCCn1c(N2CCNC[C@@H]2C(=O)NCC(=O)O)cc(=O)n2cc(-c3ccc(Cl)cc3)nc12 [Compound 666]
10 to 100 nM | CCCCCn1c(N2CCNC[C@H]2C(=O)NCC(=O)O)cc(=O)n2cc(-c3ccc(Cl)cc3)nc12 [Compound 667]
10 to 100 nM | CCCCCn1c(N2CC[C@@H](C(=O)O)C2)cc(=O)n2cc(-c3ccc(Cl)cc3)nc12 [Compound 669]
10 to 100 nM | CCCCCn1c(N2CC[C@H](C(=O)O)C2)cc(=O)n2cc(-c3ccc(Cl)cc3)nc12 [Compound 670]
10 to 100 nM | CCCCCn1c(N2CCC[C@H]2C(=O)NC(CO)C(=O)O)cc(=O)n2cc(-c3ccc(Cl)cc3)nc12 (stereo partly drawn) [Compound 672]
< 10 nM | CCCCCn1c(N2CCC[C@H]2C(=O)N2CCC[C@@H](C(=O)O)C2)cc(=O)n2cc(-c3ccc(Cl)cc3)nc12 [Compound 673]
< 10 nM | CCCCCn1c(N2CCC[C@H]2C(=O)NC(C)(C)C(=O)O)cc(=O)n2cc(-c3ccc(Cl)cc3)nc12 [Compound 674]

IC50 | SMILES
< 10 nM | CCCCCn1c(N2CCC[C@H]2C(=O)N[C@@H](C)C(=O)O)cc(=O)n2cc(-c3ccc(Cl)cc3)nc12 [Compound 675]
< 10 nM | CCCCCn1c(N2CCC[C@H]2C(=O)NC(C)(C)C(C)C(=O)O)cc(=O)n2cc(-c3ccc(Cl)cc3)nc12 (stereo partly drawn) [Compound 676]
< 10 nM | CCCCCn1c(N2CCC[C@H]2C(=O)N2CCC[C@H](C(=O)O)C2)cc(=O)n2cc(-c3ccc(Cl)cc3)nc12 [Compound 677]
10 to 100 nM | CCCCCn1c(N2CCC[C@H]2C(=O)N[C@H](C)C(=O)O)cc(=O)n2cc(-c3ccc(Cl)cc3)nc12 [Compound 678]
< 10 nM | CCCCCn1c(N2CCC[C@H]2C(=O)NC2(C(=O)O)CC2)cc(=O)n2cc(-c3ccc(Cl)cc3)nc12 [Compound 679]
10 to 100 nM | CCCCCn1c(N2CCC[C@H]2C(=O)N2CCO[C@H](C(=O)O)C2)cc(=O)n2cc(-c3ccc(Cl)cc3)nc12 [Compound 680]
< 10 nM | CCCCCn1c(N2CCC[C@H]2C(=O)N2CCO[C@@H](C(=O)O)C2)cc(=O)n2cc(-c3ccc(Cl)cc3)nc12 [Compound 681]
10 to 100 nM | CCCCCn1c(N2CCC[C@H]2C(=O)N(C)CC(=O)OC)cc(=O)n2cc(-c3ccc(Cl)cc3)nc12 [Compound 683]
10 to 100 nM | CCCCCn1c(N2CCC[C@H]2C(=O)N(C)CC(=O)N(C)CC(=O)OC)cc(=O)n2cc(-c3ccc(Cl)cc3)nc12 [Compound 684]
< 10 nM | CCCCCn1c(N2CCC[C@H]2C(=O)NC(C)C(=O)OC)cc(=O)n2cc(-c3ccc(Cl)cc3)nc12 (stereo partly drawn) [Compound 685]
10 to 100 nM | CCCCCn1c(N2CCC[C@H]2C(=O)NC(CO)C(=O)OC)cc(=O)n2cc(-c3ccc(Cl)cc3)nc12 (stereo partly drawn) [Compound 686]
10 to 100 nM | CCCCCn1c(N2CCC[C@H]2C(=O)N2CCC[C@@H](C(=O)OCC)C2)cc(=O)n2cc(-c3ccc(Cl)cc3)nc12 [Compound 688]
< 10 nM | CCCCCn1c(N2CCC[C@H]2C(=O)NC(C)(C)C(=O)OC)cc(=O)n2cc(-c3ccc(Cl)cc3)nc12 [Compound 689]
10 to 100 nM | CCCCCn1c(N2CCC[C@H]2C(=O)N[C@@H](C)C(=O)OC)cc(=O)n2cc(-c3ccc(Cl)cc3)nc12 [Compound 690]
10 to 100 nM | CCCCCn1c(N2CCC[C@H]2C(=O)N[C@H](C)C(=O)OC)cc(=O)n2cc(-c3ccc(Cl)cc3)nc12 [Compound 692]
10 to 100 nM | CCCCCn1c(N2CCC[C@H]2C(=O)NC2(C(=O)OC)CC2)cc(=O)n2cc(-c3ccc(Cl)cc3)nc12 [Compound 693]
10 to 100 nM | CCCCCn1c(N2CCC[C@H]2C(=O)NC2CCCCNC2=O)cc(=O)n2cc(-c3ccc(Cl)cc3)nc12 (stereo partly drawn) [Compound 694]
